Earlier results on one molecule are cited in US20180311274A1, “IN SITU NEUTRALIZATION COMPOSITION” (Kramer Laboratories, Inc., priority 2017, published 2018).

Each structure is given as a SMILES string.

As to `Cc1cccc(N(C)C(=S)Oc2ccc3ccccc3c2)c1` [Tolnaftate], the solubility in water entry is “practically insoluble”.
